Values of other authors, collected in paper PMC5036423 (CPT: Pharmacometrics & Systems Pharmacology, 2016).

What was measured:
intact PTH = conditions: first-in-human phase I study
[1] = 4 weeks of 5 mg TIW i.v. dosing, patients on HD

CC(=O)N[C@H](CSSC[C@H](N)C(=O)O)C(=O)N[C@H](C)C(=O)N[C@H](CCCNC(=N)N)C(=O)N[C@H](CCCNC(=N)N)C(=O)N[C@H](CCCNC(=N)N)C(=O)N[C@H](C)C(=O)N[C@H](CCCNC(=N)N)C(N)=O [etelcalcetide]
Effect on intact PTH in healthy subjects (intact PTH): showed intact PTH lowering effect
Accumulation in Cmax [1]: approximately twofold
Accumulation in area under the curve over 48 hours [1]: threefold
Plasma exposure (Cmax and area under the curve over 48 hours) versus dose (TIW i.v. administration in patients on HD): increased proportionally with the dose
Fraction of the drug eliminated by TIW HD (patients receiving TIW hemodialysis): ~50%
